Measured values taken from patent publication US20070270421A1, “Novel pyridine Derivative and Pyrimidine Derivative (1)” (priority 2004, published 2007).

Molecular target: T1, HGFR (His6-HGFR cytoplasmic domain) (Homo sapiens, UniProt P08581)
T1 construct: made in house; host or cells: Spodoptera frugiperda Sf9 insect cells (baculovirus, pFastBac-HT)
Assay: Inhibitory activity against HGFR tyrosine kinase activity (HTRF)
Format: biochemical
Details: biotin-poly(GT), ATP, 30° C. 10 min, read-out: IC50 (concentration necessary to inhibit HGFR kinase activity by 50%)
Method in brief: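 Baculovirus/Sf9-expressed N-terminal His6-tagged HGFR cytoplasmic domain (from Lys974), Ni-NTA purified, phosphorylated biotin-poly(GT) in Hepes pH 7.4 with MgCl2/MnCl2. ATP added as 4 μM solution; 10 min at 30° C., stopped with EDTA. Phosphotyrosine product detected by HTRF.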

T1 sequence (P08581 956-1390 limits assumed): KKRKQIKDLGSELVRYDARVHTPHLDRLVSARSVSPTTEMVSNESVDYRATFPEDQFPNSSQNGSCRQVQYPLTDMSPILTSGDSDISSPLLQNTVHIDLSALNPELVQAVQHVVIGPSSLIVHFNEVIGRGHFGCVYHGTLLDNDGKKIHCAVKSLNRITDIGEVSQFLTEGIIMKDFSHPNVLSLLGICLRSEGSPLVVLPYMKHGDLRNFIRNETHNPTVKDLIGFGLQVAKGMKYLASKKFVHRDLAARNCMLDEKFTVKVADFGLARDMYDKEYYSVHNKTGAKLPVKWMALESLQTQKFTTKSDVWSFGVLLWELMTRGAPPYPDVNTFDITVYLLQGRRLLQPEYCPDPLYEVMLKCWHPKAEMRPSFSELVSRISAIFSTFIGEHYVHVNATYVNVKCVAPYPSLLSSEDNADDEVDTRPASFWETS

Structure (SMILES)	IC50 [nM]
O=C(Cc1ccccc1)NC(=S)Nc1ccc(Oc2ccnc(NC(=O)N3CCC(N4CCOCC4)CC3)c2)c(F)c1 [Example 258, 4-{2-Fluoro-4-[3-(2-phenylacetyl)thioureido]phenoxy}-2-{[4-(morpholin-4-yl)piperidin-1-yl]carbonylamino}pyridine]	100
O=C(Cc1ccc(F)cc1)NC(=O)Nc1ccc(Oc2ccnc(NC(=O)N3CCN(CCN4CCC4)CC3)c2)cc1 [Example 389, 4-[2-(Azetidin-1-yl)ethyl]piperazine-1-carboxylic acid [4-(4-{3-[2-(4-fluorophenyl)acetyl]ureido}phenoxy)pyridin-2-yl]amide]	130
CN(C)C[C@@H]1CCN(C(=O)Nc2cc(Oc3ccc(NC(=S)NC(=O)Cc4ccc(F)cc4)c(F)c3)ccn2)C1 [Example 219, (3S)-3-Dimethylaminomethylpyrrolidine-1-carboxylic acid [4-(3-fluoro-4-{3-[2-(4-fluorophenyl)acetyl]thioureido}phenoxy)pyridin-2-yl]amide]	42
O=C(CC(=O)Nc1ccc(Oc2ccnc(NC(=O)N3CCOCC3)c2)cc1)Nc1ccc(F)cc1 [Example 71, N-(4-Fluorophenyl)-N′-(4-{2-[(morpholine-4-carbonyl)amino]pyridin-4-yloxy}phenyl)malonamide]	25
CN1CC(N2CCN(C(=O)Nc3cc(Oc4ccc(NC(=O)NC(=O)Cc5ccccc5)cc4F)ccn3)CC2)C1 [Example 377, 4-(1-Methylazetidin-3-yl)piperazine-1-carboxylic acid {4-[2-fluoro-4-(3-phenylacetylureido)phenoxy]pyridin-2-yl}amide]	68
O=C(Cc1ccc(F)cc1)NC(=O)Nc1ccc(Oc2ccnc(NC(=O)N3CCC(CN4CCCC4)CC3)c2)cc1 [Example 390, 4-(Pyrrolidin-1-ylmethyl)piperidine-1-carboxylic acid [4-(4-{3-[2-(4-fluorophenyl)acetyl]ureido}phenoxy)pyridin-2-yl]amide]	120
CN1CCN(C2CCN(C(=O)Nc3cc(Oc4ccc(NC(=O)NC(=O)Cc5ccc(F)cc5)cc4)ccn3)CC2)CC1 [Example 344, 4-(4-{3-[2-(4-Fluorophenyl)acetyl]ureido}phenoxy)-2-{[4-(1-methylpiperazin-4-yl)piperidin-1-yl]carbonylamino}pyridine]	110
CN(C)C1CN(C2CCN(C(=O)Nc3cc(Oc4ccc(NC(=S)NC(=O)Cc5ccc(F)cc5)c(F)c4)ccn3)CC2)C1 [Example 189, 4-[3-(Dimethylamino)azetidin-1-yl]piperidine-1-carboxylic acid [4-(3-fluoro-4-{3-[2-(4-fluorophenyl)acetyl]thioureido}phenoxy)pyridin-2-yl]amide]	110
CN1CC(N2CCC(N(C)C(=O)Nc3cc(Oc4ccc(NC(=S)NC(=O)Cc5ccccc5)cc4F)ccn3)CC2)C1 [Example 330, 3-{4-[2-Fluoro-4-(3-phenylacetylthioureido)phenoxy]pyridin-2-yl}-1-methyl-1-[1-(1-methylazetidin-3-yl)piperidin-4-yl]urea]	50
CCN(CC)CCCN(C)C(=O)Nc1cc(Oc2ccc(NC(=O)CC(=O)Nc3ccc(F)cc3)c(F)c2)ccn1 [Example 83]	82
CN(C)C[C@@H]1CCCN(C(=O)Nc2cc(Oc3ccc(NC(=S)NC(=O)Cc4ccccc4)cc3F)ccn2)C1 [Example 335, (3S)-3-Dimethylaminomethylpiperidine-1-carboxylic acid {4-[2-fluoro-4-(3-phenylacetylthioureido)phenoxy]pyridin-2-yl}amide]	110
O=C(CC(=O)Nc1ccc(Oc2ccnc(NC(=O)N3CCC(N4CCCCC4)CC3)c2)cc1F)Nc1ccc(F)cc1 [Example 78, N-(4-Fluorophenyl)-N′-{2-fluoro-4-[({[4-(piperidin-1-yl)piperidin-1-yl]carbonyl}amino)pyridin-4-yloxy]phenyl}malonamide]	130
CN(C)CCN1CCN(C(=O)Nc2cc(Oc3ccc(NC(=O)NC(=O)Cc4ccccc4)cc3F)ccn2)CC1 [Example 364, 2-{[4-(2-Dimethylaminoethyl)piperazin-1-yl]carbonylamino}-4-{2-fluoro-4-[3-(2-phenylacetyl)ureido]phenoxy}pyridine]	97
O=C(Cc1ccc(F)cc1)NC(=S)Nc1ccc(Oc2cc(NC(=O)N3CCC(CN4CCC4)CC3)ncn2)c(F)c1 [Example 392, 4-(Azetidin-1-ylmethyl)piperidine-1-carboxylic acid [6-(2-fluoro-4-{3-[2-(4-fluorophenyl)acetyl]thioureido}phenoxy)pyrimidin-4-yl]amide]	55
CN1CC[C@H](N(C)C(=O)Nc2cc(Oc3ccc(NC(=S)NC(=O)Cc4ccc(F)cc4)cc3F)ncn2)C1 [Example 201, 3-[6-(2-Fluoro-4-{3-[2-(4-fluorophenyl)acetyl]thioureido}phenoxy)pyrimidin-4-yl]-1-methyl-1-[(3S)-1-methylpyrrolidin-3-yl]urea]	50
CN(C)CC1CCN(C(=O)Nc2cc(Oc3ccc(NC(=O)NC(=O)Cc4ccccc4)cc3F)ccn2)CC1 [Example 342, 2-{[4-(Dimethylaminomethyl)piperidin-1-yl]carbonylamino}-4-{2-fluoro-4-[3-(2-phenylacetyl)ureido]phenoxy}pyridine]	59
CN1CC(N2CCN(C(=O)Nc3cc(Oc4ccc(NC(=S)NC(=O)Cc5ccccc5)cc4F)ccn3)CC2)C1 [Example 381]	83
CN(C)C(=O)Nc1cc(Oc2ccc(NC(=S)NC(=O)CC3CCCCC3)cc2F)ccn1 [Example 16, 2-[(Dimethylamino)carbonylamino]-4-{2-fluoro-4-[3-(2-cyclohexylacetylthio)ureido]phenoxy}pyridine]	56
O=C(Cc1ccc(F)cc1)NC(=O)Nc1ccc(Oc2ccnc(NC(=O)N3CCC(N4CCCC4)CC3)c2)c(F)c1 [Example 174, 4-(Pyrrolidin-1-yl)piperidine-1-carboxylic acid [4-(2-fluoro-4-{3-[2-(4-fluorophenyl)acetyl]ureido}phenoxy)pyridin-2-yl]amide]	74
CN1CC(N2CCC(N(C)C(=O)Nc3cc(Oc4ccc(NC(=S)NC(=O)Cc5ccc(F)cc5)cc4F)ncn3)CC2)C1 [Example 391, 3-(6-{2-Fluoro-4-[3-(4-fluorophenyl)acetylthioureido]phenoxy}pyrimidin-4-yl)-1-methyl-1-[1-(1-methylazetidin-3-yl)piperidin-4-yl]urea]	83
CN(C)C1CN(C(=O)Nc2cc(Oc3ccc(NC(=S)NC(=O)Cc4ccc(F)cc4)cc3F)ncn2)C1 [Example 208, 3-Dimethylaminoazetidine-1-carboxylic acid [6-(2-fluoro-4-{3-[2-(4-fluorophenyl)acetyl]thioureido}phenoxy)pyrimidin-4-yl]amide]	50
O=C(Cc1ccccc1)NC(=S)Nc1ccc(Oc2cc(NC(=O)N3CCC(N4CCCC4)CC3)ncn2)c(F)c1 [Example 8, 4-(Pyrrolidin-1-yl)piperidine-1-carboxylic acid {6-[2-fluoro-4-(3-phenylacetylthioureido)phenoxy]pyrimidin-4-yl}amide]	83
O=C(CC(=O)Nc1ccc(F)cc1F)Nc1ccc(Oc2ccnc(NC(=O)N3CCCC3)c2)c(F)c1 [Example 57, N-(3-Fluoro-4-{2-[(pyrrolidine-1-carbonyl)amino]pyridin-4-yloxy}phenyl)-N′-(2,4-difluorophenyl)malonamide]	48
O=C(CC(=O)Nc1ccc(Oc2ccnc(NC(=O)N3CCCCC3)c2)cc1Cl)Nc1ccc(F)cc1 [Example 65, N-(2-Chloro-4-{2-[(piperidine-1-carbonyl)amino]pyridin-4-yloxy}phenyl)-N′-(4-fluorophenyl)malonamide]	87
